Measured values from PubChem BioAssay (NCI).
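A five-concentration, 48-hour dose response in 96-well plates underlies each endpoint, interpolated linearly between surrounding concentrations. GI50 = concentration required for 50% inhibition of growth. TGI is the concentration that stops growth completely.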

How the values were obtained:
Experiment in all cases: NCI anticancer screen, dose series, 48 h
HCT-15 colon = system: HCT-15 colon
HL-60(TB) leukemia = system: HL-60(TB) leukemia
SNB-19 CNS = system: SNB-19 CNS
786-0 renal = system: 786-0 renal
SW-620 colon = system: SW-620 colon
NCI-H226 lung = system: NCI-H226 lung
UACC-257 melanoma = system: UACC-257 melanoma
HT29 colon = system: HT29 colon
A549 NSCLC = system: A549 NSCLC
SR leukemia = system: SR leukemia

Compound | TGI (HCT-15 colon) [µM] | TGI (HL-60(TB) leukemia) [µM] | TGI (SNB-19 CNS) [µM] | TGI (786-0 renal) [µM] | TGI (SW-620 colon) [µM] | TGI (NCI-H226 lung) [µM] | TGI (UACC-257 melanoma) [µM] | TGI (HT29 colon) [µM] | TGI (A549 NSCLC) [µM] | GI50 (HCT-15 colon) [µM] | GI50 (HL-60(TB) leukemia) [µM] | GI50 (786-0 renal) [µM] | GI50 (SW-620 colon) [µM] | GI50 (UACC-257 melanoma) [µM] | GI50 (A549 NSCLC) [µM] | GI50 (SNB-19 CNS) [µM] | GI50 (SR leukemia) [µM] | TGI (SR leukemia) [µM] | GI50 (NCI-H226 lung) [µM] | GI50 (HT29 colon) [µM]
CON1C(=O)C2(CCCCC2)C(=O)C12C=CC(C)CC2 (stereo not given) | > 100 | > 100 | > 100 | > 100 | > 100 | > 100 | > 100 | > 100 | > 100 | – | – | – | – | – | – | – | – | – | – | –
Cc1cccc2c(=O)c3c(sc12)c(NCCCN)nc1ccccc13 | 2.84 | 3.34 | – | 3.28 | 2.66 | – | 3.46 | – | 2.45 | 1.35 | 1.71 | 1.69 | 1.19 | 1.76 | 0.88 | – | – | – | – | –
NCCCNCc1c2ccccc2c(CNCCCN)c2ccccc12 | 54.1 | 39.3 | > 100 | 36.2 | 26 | – | 45.1 | 94.3 | 82.6 | – | – | – | – | – | – | – | – | – | – | –
Oc1ccc(O)c(-n2cccn2)c1 | > 100 | 44.8 | > 100 | > 100 | 73.7 | – | – | > 100 | > 100 | – | – | – | – | – | – | – | – | – | – | –
COc1cc(/C=C/C(=O)c2ccccc2O)ccc1OCCCOc1cc2c(cc1OC)C(=O)N1CCC[C@H]1C=N2 | 1.05 | 0.161 | – | 1.53 | – | 0.541 | 0.527 | > 100 | 1.24 | 0.255 | 0.0515 | 0.025 | – | 0.158 | 0.0315 | 0.193 | 0.0184 | 0.0523 | 0.181 | 0.0344
COc1nc(NC2OC(COC(C)=O)C(OC(C)=O)C(OC(C)=O)C2OC(C)=O)c(N=C(C)C(C)=O)c(=O)n1C (stereo not given) | > 100 | > 100 | > 100 | > 100 | > 100 | > 100 | > 100 | > 100 | > 100 | – | – | – | – | – | – | – | – | – | – | –
CSc1nc2c(nc(N)n2C2OC(CO)C(O)C(O)C2O)c(=O)[nH]1 (stereo not given) | – | > 100 | > 100 | > 100 | > 100 | > 100 | > 100 | > 100 | > 100 | – | – | – | – | – | – | – | – | > 100 | – | –
COC(=O)CCCCCOS(=O)(=O)c1ccc(C)cc1 | > 100 | > 100 | > 100 | > 100 | > 100 | – | > 100 | > 100 | > 100 | – | – | – | – | – | – | – | – | > 100 | – | –
C/C(=N\NC(=O)c1ccccc1O)c1c(O)cc(C)oc1=O | > 100 | > 100 | > 100 | > 100 | > 100 | > 100 | > 100 | > 100 | > 100 | – | – | – | – | – | – | – | – | – | – | –
C/C(COc1ccc2oc(-c3ccccc3)cc(=O)c2c1)=N\O | > 100 | > 100 | > 100 | > 100 | > 100 | > 100 | > 100 | > 100 | > 100 | 7.87 | 74.5 | 9.05 | 26.2 | > 100 | 45.4 | 26.7 | – | – | > 100 | 22.7
Cc1ccc(S(=O)(=O)NC(Cc2ccccc2)C(=O)CCl)cc1 (stereo not given) | 31.6 | > 100 | 32.1 | 27.8 | 24.1 | 33.1 | 24.9 | 28.5 | 31.5 | – | – | – | – | – | – | – | – | – | – | –
O=C1CC=C2C3CC4N(CCC45c4ccccc4N1C25)C/C3=C\CO (stereo not given) | > 100 | > 100 | > 100 | > 100 | > 100 | > 100 | > 100 | > 100 | > 100 | – | – | – | – | – | – | – | – | – | – | –
N[C@@H](Cc1c[nH]c2ccccc12)C(=O)NC1CCN(Cc2c[nH]c3ccc(Cl)cc23)CC1 | 31 | 24.4 | 23.9 | 24.9 | 16.8 | 34.1 | – | 23.5 | 27.5 | 16.2 | 7.04 | 11.4 | 4.79 | – | 13.9 | 10.4 | 2.33 | 6.46 | 15.4 | 10.8
C=C(C)[C@@H]1C/C=C(/COC(C)=O)CC[C@H]2O[C@@]2(C)CC/C=C(\C)CC1 | > 100 | – | > 100 | > 100 | – | > 100 | – | – | > 100 | > 100 | – | 67.9 | – | – | 40.1 | > 100 | 34.3 | 91.5 | > 100 | –
CC(=O)O[C@H]1CC[C@@]2(C)C(=CC[C@H]3C(CC#N)[C@@](C)(C#N)CCC32)C1 (stereo not given in full) | > 100 | > 100 | > 100 | > 100 | > 100 | > 100 | > 100 | > 100 | > 100 | – | – | – | – | – | – | – | – | – | – | –
CC(=O)NNc1ncc(C(=O)/C=C/c2ccccc2C)s1 | – | > 100 | > 100 | > 100 | > 100 | – | > 100 | > 100 | > 100 | – | – | – | – | – | – | – | – | – | – | –
O=C(Nc1ccc(Cl)cc1)c1cc(NCc2cc(O)ccc2O)ccc1O | 6.01 | 4.86 | 21.2 | 19.6 | 22.8 | – | 30.3 | 58.5 | 44 | 1.81 | 1.4 | 6.17 | 4.14 | 15.7 | 18.4 | 8.33 | 3.84 | > 100 | – | 22.2
CCCCSC1CCSc2c1ccc1ccccc21 (stereo not given) | > 100 | > 100 | > 100 | > 100 | – | – | – | > 100 | > 100 | – | – | – | – | – | – | – | – | > 100 | – | –
Clc1ccc(-c2nnc(-c3nn(-c4ccccc4)c4nc5ccccc5nc34)o2)cc1 | > 100 | 80.5 | > 100 | > 100 | > 100 | > 100 | > 100 | > 100 | > 100 | – | – | – | – | – | – | – | – | – | – | –
